Source: patent US12172983B2, “EGFR inhibitors” (Blueprint Medicines Corporation, priority 2019, dated 2024)
Like-named read-outs stand apart in the source and are kept apart here.

What was measured:
EGFR (L858R T790M C797S) = target: T1, EGFR (L858R T790M C797S) (Homo sapiens, UniProt P00533, C797S/L858R/T790M); test: Biochemical EGFR inhibition assay (Caliper mobility shift), EGFR LRTMCS mutant; conditions: inhibitory activity against EGFR LRTMCS mutant; apparent IC50; read-out: Ext Enz LRTMCS
T1 construct: purchased SignalChem E10-122VG
Experimental: Reactions proceeded until between 10% to 20% total peptides were phosphorylated at room temperature (25° C.) and were terminated with 35 mM 2,2′,2″,2′″-(ethane-1,2-diyldinitrilo)tetraacetic acid (EDTA). Product was detected using the Caliper mobility shift detection method where the phosphorylated peptide (product) and substrate were electrophoretically separated and measured. Percent activity was plotted against log concentration of compound and points to generate an apparent IC50.

[1] = system: phosphorylation of EGFR (Tyr1068) in NCI-H1975 cell line that harbors the EGFR L858R T790M mutations; test: NCI-H1975 pEGFR AlphaLISA assay; type: cell-based; conditions: 4-5 hours incubation, read-out: Ext pEGFR H1975
Experimental: Inhibitory effects of the compounds of the disclosure were evaluated in cellular assays that measure level of intracellular phosphorylation of EGFR in NCI-H1975 cell line that harbors the EGFR L858R T790M mutations (ATCC, CRL-5908) using AlphaLISA sureFire ultra p-EGFR (Tyr1068) assay kit (PerkinElmer, ALSU-PEGFR-A50K). The NCI-H1975 cells were seeded at 12.5K/well in 22 μL into 384 well opti plate (PerkinElmer, 6007299) and adhering overnight at 37 C/5% CO2. On the next day, the test compounds and DMSO control were added into H1975 cell plate followed by incubation at 37 C/5% CO2 for 4-5 hours. The cells were then spin down in the 384-well plate and lysed with 10 μL of 1×AlphaLISA lysis buffer followed by shaking at 600 rpm for 10 minutes at room temperature. After that, 5 μL of an acceptor bead mix was added to each well followed by incubation at room temperature for 1.5-2 h in dark. Then 5 μL of a donor bead mix was added to each well followed by overnight incubation at room temperature in dark. On the next day, the plate was read at a compatible plate reader to obtain pEGFR signal. Percent of pEGFR inhibition was plotted against log concentration of compounds to generate IC50 values.

[2] = Homo sapiens, NCI-H1975, inhibition of phosphorylation of mutant EGFR in NCI-H1975 cells
[3] = inhibition of phosphorylation of mutant EGFR in NCI-H1975 cells

T1 sequence (P00533 25-1210 T790M/C797S/L858R): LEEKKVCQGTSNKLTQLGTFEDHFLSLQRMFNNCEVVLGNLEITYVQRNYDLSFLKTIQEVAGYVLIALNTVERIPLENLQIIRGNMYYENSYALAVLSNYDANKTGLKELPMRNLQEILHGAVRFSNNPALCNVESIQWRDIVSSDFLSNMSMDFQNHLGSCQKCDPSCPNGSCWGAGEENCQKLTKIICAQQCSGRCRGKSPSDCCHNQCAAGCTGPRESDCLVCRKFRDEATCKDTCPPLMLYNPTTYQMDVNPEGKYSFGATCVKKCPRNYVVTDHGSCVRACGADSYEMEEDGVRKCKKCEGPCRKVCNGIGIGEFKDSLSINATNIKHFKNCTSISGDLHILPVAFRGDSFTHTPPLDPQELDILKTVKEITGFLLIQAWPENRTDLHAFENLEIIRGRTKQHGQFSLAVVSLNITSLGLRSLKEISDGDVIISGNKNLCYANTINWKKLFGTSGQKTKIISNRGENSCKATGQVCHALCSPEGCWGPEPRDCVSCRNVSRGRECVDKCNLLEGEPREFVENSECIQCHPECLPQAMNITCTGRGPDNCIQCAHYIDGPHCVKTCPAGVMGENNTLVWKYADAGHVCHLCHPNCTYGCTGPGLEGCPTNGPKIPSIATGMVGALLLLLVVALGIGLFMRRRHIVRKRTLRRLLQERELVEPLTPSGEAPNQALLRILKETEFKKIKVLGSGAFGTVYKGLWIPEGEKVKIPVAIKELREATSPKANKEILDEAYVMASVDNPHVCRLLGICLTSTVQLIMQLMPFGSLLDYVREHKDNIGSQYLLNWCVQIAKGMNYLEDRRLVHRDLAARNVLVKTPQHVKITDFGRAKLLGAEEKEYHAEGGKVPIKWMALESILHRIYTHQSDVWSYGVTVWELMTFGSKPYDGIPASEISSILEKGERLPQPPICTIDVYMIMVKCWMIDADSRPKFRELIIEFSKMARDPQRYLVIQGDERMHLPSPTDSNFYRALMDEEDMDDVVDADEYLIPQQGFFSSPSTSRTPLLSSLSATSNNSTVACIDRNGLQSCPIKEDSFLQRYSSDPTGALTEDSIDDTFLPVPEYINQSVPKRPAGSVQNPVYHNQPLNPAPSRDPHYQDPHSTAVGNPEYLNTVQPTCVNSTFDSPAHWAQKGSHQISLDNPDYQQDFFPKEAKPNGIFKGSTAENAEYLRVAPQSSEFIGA

IC50 (EGFR (L858R T790M C797S)) [nM]	IC50 [1, 2] [nM]	IC50 [1, 3] [nM]	Structure (SMILES)
≤ 15	≤ 10		CCS(=O)(=O)CC1CN(c2ccc(C(C)C)c3cc(Nc4ccnc(N5C[C@@H](F)[C@@H](O)C(C)(C)C5)n4)ncc23)C1 (single isomer, unassigned) [Compound 182, (4S,5R)-1-{4-[(8-{3-[(ethanesulfonyl)methyl]azetidin-1-yl}-5-(propan-2-yl)isoquinolin-3-yl)amino]pyrimidin-2-yl}-5-fluoro-3,3-dimethylpiperidin-4-ol or (4R,5S)-1-{4-[(8-{3-[(ethanesulfonyl)methyl]azetidin-1-yl}-5-(propan-2-yl)isoquinolin-3-yl)amino]pyrimidin-2-yl}-5-fluoro-3,3-dimethylpiperidin-4-ol]
≤ 15	≤ 10		[2H]C([2H])([2H])O[C@@H]1CCN(c2nccc(Nc3cc4c(C(C)C)ncc(N5C[C@H](CS(C)(=O)=O)[C@H]5C)c4cn3)n2)C[C@@H]1F (single isomer, unassigned) [Compound 161, N-{2-[(3S,4R)-3-fluoro-4-(^2H3)methoxypiperidin-1-yl]pyrimidin-4-yl}-8-[(2R,3S)-3-(methanesulfonylmethyl)-2-methylazetidin-1-yl]-5-(propan-2-yl)-2,6-naphthyridin-3-amine or N-{2-[(3R,4S)-3-fluoro-4-(^2H3)methoxypiperidin-1-yl]pyrimidin-4-yl}-8-[(2R,3S)-3-(methanesulrfonylmethyl)-2-methylazetidin-1-yl]-5-(propan-2-yl)-2,6-naphthyridin-3-amine]
		20.1 to 30	CO[C@@H]1CCN(c2nccc(Nc3cc4c(C(C)C)ccc(N5C[C@H](CS(C)(=O)=O)[C@H]5C)c4cn3)n2)C[C@H]1F (single isomer, unassigned) [Compound 279, N-{2-[(3S,4S)-3-fluoro-4-methoxypiperidin-1-yl]pyrimidin-4-yl}-8-[(2R,3S)-3-(methanesulfonylmethyl)-2-methylazetidin-1-yl]-5-(propan-2-yl)isoquinolin-3-amine or N-{2-[(3R,4R)-3-fluoro-4-methoxypiperidin-1-yl]pyrimidin-4-yl}-8-[(2R,3S)-3-(methanesulfonylmethyl)-2-methylazetidin-1-yl]-5-(propan-2-yl)isoquinolin-3-amine]
≤ 15			CO[C@H]1CCN(c2nccc(Nc3cc4c(C(C)(C)N)ccc(N5C[C@H](CS(C)(=O)=O)[C@H]5C)c4cn3)n2)C[C@H]1F [Compound 312, 5-(2-aminopropan-2-yl)-N-(2-((3R,4S)-3-fluoro-4-methoxypiperidin-1-yl)pyrimidin-4-yl)-8-((2R,3S)-2-methyl-3-((methylsulfonyl)methyl)azetidin-1-yl)isoquinolin-3-amine]
	20.1 to 30		CO[C@@H]1CCN(c2nccc(Nc3cc4c(C(C)C)ccc(N5C[C@H](CS(C)(=O)=O)[C@H]5C)c4cn3)n2)C[C@H]1F (single isomer, unassigned) [Compound 278, N-{2-[(3R,4R)-3-fluoro-4-methoxypiperidin-1-yl]pyrimidin-4-yl}-8-[(2R,3S)-3-(methanesulfonylmethyl)-2-methylazetidin-1-yl]-5-(propan-2-yl)isoquinolin-3-amine or N-{2-[(3S,4S)-3-fluoro-4-methoxypiperidin-1-yl]pyrimidin-4-yl}-8-[(2R,3S)-3-(methanesulfonylmethyl)-2-methylazetidin-1-yl]-5-(propan-2-yl)isoquinolin-3-amine]

The remaining lines, values behind:

Structure (SMILES)	IC50 (EGFR (L858R T790M C797S)) [nM]	IC50 [1, 2] [nM]	IC50 [1, 3] [nM]
CC1(C)CN(c2nccc(Nc3cc4c(F)cc(F)c(N5CC(CS(C)(=O)=O)C5)c4cn3)n2)C[C@@H](F)[C@H]1O (single isomer, unassigned) [Compound 86, (4S,5R)-1-[4-[[5,7-difluoro-8-[3-(methylsulfonylmethyl)azetidin-1-yl]-3-isoquinolyl]amino]pyrimidin-2-yl]-5-fluoro-3,3-dimethyl-piperidin-4-ol or (4R,5S)-1-[4-[[5,7-difluoro-8-[3-(methylsulfonylmethyl)azetidin-1-yl]-3-isoquinolyl]amino]pyrimidin-2-yl]-5-fluoro-3,3-dimethyl-piperidin-4-ol]	20.1 to 30	30.1 to 50	
CC(C)c1ccc(N2CC(CS(C)(=O)=O)C2)c2cnc(Nc3ccnc(N4CC[C@H](O)[C@@](C)(F)C4)n3)cc12 (single isomer, unassigned) [Compound 61, (3S,4S)-3-fluoro-1-[4-({8-[3-(methanesulfonylmethyl)azetidin-1-yl]-5-(propan-2-yl)isoquinolin-3-yl}amino)pyrimidin-2-yl]-3-methylpiperidin-4-ol or (3R,4R)-3-fluoro-1-[4-({8-[3-(methanesulfonylmethyl)azetidin-1-yl]-5-(propan-2-yl)isoquinolin-3-yl}amino)pyrimidin-2-yl]-3-methylpiperidin-4-ol]		30.1 to 50	
CC(C)c1ncc(N2C[C@H](CS(C)(=O)=O)[C@H]2C)c2cnc(Nc3ccnc(N4CC[C@@H](O)[C@@](C)(F)C4)n3)cc12 (single isomer, unassigned) [Compound 129]	≤ 15	≤ 10	
CC(C)c1ccc(N2C[C@H](CS(C)(=O)=O)[C@H]2C)c2cnc(Nc3ccnc(N4CC[C@H](O)C[C@H]4C)n3)cc12 (single isomer, unassigned) [Compound 49, (2R,4S)-1-[4-({8-[(2R,3S)-3-(methanesulfonylmethyl)-2-methylazetidin-1-yl]-5-(propan-2-yl)isoquinolin-3-yl}amino)pyrimidin-2-yl]-2-methylpiperidin-4-ol or (2S,4R)-1-[4-({8-[(2R,3S)-3-(methanesulfonylmethyl)-2-methylazetidin-1-yl]-5-(propan-2-yl)isoquinolin-3-yl}amino)pyrimidin-2-yl]-2-methylpiperidin-4-ol]	≤ 15	≤ 10	
CC(C)c1cnc(N2CC([C@@H](C)S(C)(=O)=O)C2)c2cnc(Nc3ccnc(N4CC[C@@H](O)[C@@](C)(F)C4)n3)cc12 (single isomer, unassigned) [Compound 127]	≤ 15	≤ 10	
CO[C@H]1CCN(c2nncc(Nc3cc4c(C(C)C)ccc(N5CC(CS(C)(=O)=O)C5)c4cn3)n2)C[C@H]1F [Compound 76, N-{3-[(3R,4S)-3-fluoro-4-methoxypiperidin-1-yl]-1,2,4-triazin-5-yl}-8-[3-(methanesulfonylmethyl)azetidin-1-yl]-5-(propan-2-yl)isoquinolin-3-amine]	≤ 15	≤ 10	
CO[C@H]1CCN(c2nccc(Nc3cc4c(C(C)C)ccc(N5C[C@H](CS(C)(=O)=O)[C@H]5C)c4cn3)n2)C[C@H]1F [Compound 123, N-(2-((3R,4S)-3-fluoro-4-methoxypiperidin-1-yl)pyrimidin-4-yl)-5-isopropyl-8-((2R,3S)-2-methyl-3-((methylsulfonyl)methyl)azetidin-1-yl)isoquinolin-3-amine]		≤ 10	
CC(C)c1ccc(N2C[C@H](CS(C)(=O)=O)[C@H]2C)c2cnc(Nc3ccnc(N4CC[C@H](O)[C@@](C)(F)C4)n3)cc12 (single isomer, unassigned) [Compound 120, (3R,4R)-3-fluoro-1-[4-({8-[(2R,3S)-3-(methanesulfonylmethyl)-2-methylazetidin-1-yl]-5-(propan-2-yl)isoquinolin-3-yl}amino)pyrimidin-2-yl]-3-methylpiperidin-4-ol or (3S,4S)-3-fluoro-1-[4-({8-[(2R,3S)-3-(methanesulfonylmethyl)-2-methylazetidin-1-yl]-5-(propan-2-yl)isoquinolin-3-yl}amino)pyrimidin-2-yl]-3-methylpiperidin-4-ol]			10.1 to 20
CC(C)c1cnc(N2CC(CS(C)(=O)=O)C2)c2cnc(Nc3ccnc(N4CC[C@@H](O)[C@@](C)(F)C4)n3)cc12 (single isomer, unassigned) [Compound 67]		≤ 10	
CO[C@@H]1CCN(c2nccc(Nc3cc4c(C(C)C)ccc(N5C[C@H](CS(C)(=O)=O)[C@H]5C)c4cn3)n2)C[C@@H]1F [Compound 122, N-(2-((3S,4R)-3-fluoro-4-methoxypiperidin-1-yl)pyrimidin-4-yl)-5-isopropyl-8-((2R,3S)-2-methyl-3-((methylsulfonyl)methyl)azetidin-1-yl)isoquinolin-3-amine]		≤ 10	
CC(C)c1ccc(N2C[C@H](CS(C)(=O)=O)[C@H]2C)c2cnc(Nc3ccnc(N4CC[C@H](O)[C@@](C)(F)C4)n3)cc12 (single isomer, unassigned) [Compound 119, (3S,4S)-3-fluoro-1-[4-({8-[(2R,3S)-3-(methanesulfonylmethyl)-2-methylazetidin-1-yl]-5-(propan-2-yl)isoquinolin-3-yl}amino)pyrimidin-2-yl]-3-methylpiperidin-4-ol or (3R,4R)-3-fluoro-1-[4-({8-[(2R,3S)-3-(methanesulfonylmethyl)-2-methylazetidin-1-yl]-5-(propan-2-yl)isoquinolin-3-yl}amino)pyrimidin-2-yl]-3-methylpiperidin-4-ol]		20.1 to 30	
